What was measured:
[1] = tested on: HuT78 (T-cell lymphoma) cells; test: MTT antiproliferative assay, HuT78; format: cell-based, human; conditions: for IC50: Homo sapiens, HuT78, 72 h, 72 h, MTT, mean ± SD of three independent experiments; for SI (BJ) HuT78: SI = IC50 BJ / IC50 HuT78; for SI (MDCK) HuT78: SI = IC50 MDCK1 / IC50 HuT78
Description: (§1) The growth inhibition activity was assessed according to the slightly modified procedure performed at the National Cancer Institute, Developmental Therapeutics Program.
(§2) Examined compounds were dissolved in DMSO (1 × 10^−2 M). The experiments were carried out on seven human tumor cell lines and two normal cell lines. The following cell lines were used: HeLa (human cervical adenocarcinoma; purchased from ATCC), CaCo-2 (human colorectal adenocarcinoma), HuT78 (T-cell lymphoma), THP-1 (acute monocytic leukemia), SW620 (colorectal adenocarcinoma, metastatic), MDA-MB-231 (human breast adenocarcinoma), HL60 (promyelocytic leukemia cell line), foreskin fibroblast cells (BJ) and MDCK1 (Madine–Darby canine kidney fibroblast like cells). MDCK1 cells were used between 24 and 26 passages.
(§3) Adherent cells were cultured in the Dulbecco’s modified Eagle medium—DMEM (Gibco, EU) supplemented with 10 % heat-inactivated fetal bovine serum (FBS, Gibco, EU), 2 mM glutamine, and 100 U/0.1 mg penicillin/streptomycin. Cells on suspension were cultured in RPMI 1640 (Gibco, EU) medium supplemented with 10 % FBS (Gibco, EU), 2 mM glutamine, 1 mM sodium pyruvate, 10 mM HEPES. Cells were grown in humidified atmosphere under the conditions of 37 °C/5% of CO2 gas in the CO2 incubator (IGO 150 CELLlife^TM, JOUAN, Thermo Fisher Scientific, Waltham, MA, USA). A erythrosin B (Sigma-Aldrich, St. Louis, MO, USA) dye exclusion method was used to assess cell viability before plating.
(§4) Adherent cells (HeLa, CaCo-2, MCF-7 and MDCK-1) were plated in 96-well flat bottom plates (Greiner, Frickenhausen, Austria) at a concentration of 2 × 10^4 cells/mL. Suspension cells (THP-1 and HuT78) were plated in 96-well microtiter plates (Sarstead, Newton, USA) at a concentration of 1 × 10^5 cells/mL. Twenty-four hours later, cells were treated with test agents in […] 10-fold dilutions ([…] to 10^−4 M) and incubated for further 72 h. Working dilutions were freshly prepared on the day of testing. The solvent was also tested for eventual inhibitory activity by adjusting its concentration to be the same as in working concentrations. After 72 h of incubation, the cell growth rate was evaluated by performing the MTT assay, which detects dehydrogenase activity in viable cells. For this purpose, upon completion of the incubation period, growth medium was discarded and 50 μL of MTT was added to each well at a concentration of 5 mg/mL. After four hours of incubation at 37 °C, water insoluble MTT-formazan crystals were dissolved in 150 μL of dimethyl-sulfoxide (DMSO) for adherent cells, and in 10 % SDS with 0.01 M/L HCl for cells grown in suspension. The absorbance (OD, optical density) was measured on a microplate reader (iMark, BIO RAD, Hercules, CA, USA) at 595 nm.
(§5) Percent of life cells was calculated as follows: % = OD (sample)–OD (background)/OD (control)–OD (background) × 100.
(§6) Optical density (OD) of background for adherent cells is the OD of MTT solution and DMSO; OD (background) for suspension cells is OD of the culture medium with MTT and 10% SDS with 0.01 M/L HCl; OD (control) is the OD of the cells growth without tested compounds.
(§7) Calculation of GI50 value curves and QC analysis is performed by using the Excel tools and GraphPadPrism software (La Jolla, CA), v. 5.03. Briefly, individual concentration effect curves are generated by plotting the logarithm of the concentration of tested compounds(X) vs. corresponding percent inhibition values (Y) using least squares fit. The best fit GI50 values are calculated using Log (inhibitor) versus normalized response—Variable slope equation, where Y Ľ 100/(1 ţ 10 ((LogIC50 _ X) * HillSlope)). QC criteria parameters (Z0, S:B, R2, HillSlope) were checked for every GI50 curve.

[2] = tested on: CaCo-2 (colon adenocarcinoma) cells; test: MTT antiproliferative assay, CaCo-2; format: cell-based, human; conditions: for IC50: Homo sapiens, Caco-2, 72 h, MTT, mean ± SD of three independent experiments; for SI (MDCK) CaCo-2: SI = IC50 MDCK1 / IC50 CaCo-2
Description: as §1, §2, §3, §4, §5, §6
as §7, with “The best fit GI50 values are calculated using Log (inhibitor) versus normalized response—Variable slope equation, where Y Ľ 100/(1 ţ 10 ((LogIC50 _ X) * HillSlope)).” left out

human fibroblasts (BJ) = test: MTT antiproliferative assay, normal BJ fibroblasts; format: cell-based; conditions: Homo sapiens, Fibroblast, 72 h, MTT, mean ± SD of three independent experiments; normal cells
Description: as §1, §2, §3, §4, §5, §6, §7

[3] = tested on: HeLa (cervical adenocarcinoma) cells; test: MTT antiproliferative assay, HeLa; format: cell-based; conditions: Homo sapiens, 72 h, mean ± SD of three independent experiments
Description: as §1, §2, §3, §4, §5, §6, §7

[4] = tested on: MDCK1 (Madin–Darby canine kidney) cells; test: MTT antiproliferative assay, non-tumor MDCK1 cells; format: cell-based; conditions: Canis lupus familiaris, MDCK1, 72 h, mean ± SD of three independent experiments, normal cells
Description: as §1, §2, §3, §4, §5, §6, §7

Row | Structure (SMILES) | IC50 [1] [µM] | SI (BJ) HuT78 [1] | SI (MDCK) HuT78 [1] | IC50 [2] [µM] | IC50 (human fibroblasts (BJ)) [µM] | IC50 [3] [µM] | IC50 [4] [µM] | SI (MDCK) CaCo-2 [2] | melting point [°C] | SI (BJ) CaCo-2 ([2]; SI = IC50 BJ / IC50 CaCo-2)
1 | c1cc(-c2nc3ccc(C4=NCCN4)cc3[nH]2)ccc1OCc1cn(CCN2CCOCC2)nn1 [46a] | 63 ± 15.1 | 1.59 | 1.59 | > 100 | > 100 | > 100 | > 100 |  |  | 
2 | Fc1cc(-c2nc3ccc(C4=NCCN4)cc3[nH]2)ccc1OCc1ccccn1 [43b] | 43.3 ± 4.4 | 2.3 | 2.3 | > 100 | > 100 | > 100 | > 100 |  |  | 
3 | c1ccc(Cn2cc(COc3ccc(-c4nc5ccc(C6=NCCCN6)cc5s4)cc3)nn2)cc1 [41a] | 4.1 ± 3.6 | 6.65 | 14.19 | 29.2 ± 4.2 | 27.3 ± 6 | 25.8 ± 0.8 | 58.2 ± 17.3 | 1.99 |  | 
4 | Fc1ccc2nc(-c3ccc(OCc4cn(Cc5ccccc5)nn4)c(F)c3)sc2c1 [25b, 6-Fluoro-2-(3-fluoro-4-((1-benzyl-1H-1,2,3-triazol-4-yl)methoxy)phenyl)benzothiazole] | 19.7 ± 10.6 | 5.07 | 2.6 | > 100 | > 100 | > 100 | 51.3 ± 4.6 |  | 205 to 208 | 
5 | O=C(COc1ccc(-c2nc3ccc(C4=NCCN4)cc3[nH]2)cc1)N1CCOCC1 [47a] | > 100 |  |  | > 100 | > 100 | > 100 | > 100 |  |  | 
6 | Cl.O=C(COc1ccc(-c2nc3ccc(C4=NCCN4)cc3s2)cc1)c1ccccc1 [34a, 2-(4-(2-Oxo-2-phenylethoxy)phenyl)-6-(4,5-dihydro-1H-imidazol-2-yl)benzothiazole hydrochloride] | 2.2 ± 0.3 |  |  | 4 ± 0.2 | 3.9 ± 0.3 | 3.4 ± 0.2 | 2.8 ± 0.3 |  | > 250 | 
7 | O=C(COc1ccc(-c2nc3ccccc3s2)cc1)c1ccccc1 [17a, 2-(4-(2-Oxo-2-phenylethoxy)phenyl)benzothiazole] | > 100 |  |  | > 100 | > 100 | > 100 | > 100 |  | 150 to 155 | 
8 | Fc1cc(-c2nc3ccccc3s2)ccc1OCc1ccccn1 [20b] | > 100 |  |  | 28.7 ± 16.7 | > 100 | > 100 | 94.2 ± 18.4 | 3.28 | 136 to 142 | 3.48
9 | COc1cc(-c2nc3ccc(C4=NCCN4)cc3[nH]2)ccc1OCCN1CCOCC1 [48c] | 69.6 ± 25.9 | 1.44 | 1.44 | > 100 | > 100 | > 100 | > 100 |  |  | 
10 | Clc1ccc2nc(-c3ccc(OCc4ccccn4)cc3)sc2c1 [18a] | 13.2 ± 1.2 | 3.2 |  | > 100 | > 100 | 42.4 ± 7.5 | 17.6 ± 5.7 |  |  | 
11 | c1cc(-c2nc3ccc(C4=NCCN4)cc3[nH]2)ccc1OCc1c[nH]nn1 [44a] | 89.2 ± 20.6 |  | 1.2 | > 100 | 73.3 ± 3.2 | > 100 | > 100 |  |  | 
12 | Fc1cc(-c2nc3ccc(C4=NCCN4)cc3[nH]2)ccc1OCCN1CCOCC1 [48b] | > 100 |  |  | > 100 | > 100 | > 100 | > 100 |  |  | 
13 | c1cc(-c2nc3ccc(C4=NCCN4)cc3[nH]2)ccc1OCCN1CCOCC1 [48a] | > 100 |  |  | > 100 | > 100 | > 100 | > 100 |  |  | 
